In PubChem BioAssay AID248 (DTP/NCI, 2004):
Several values for one entry are separate records, joined by “and”; a condition that tells them apart may be missing. Equal values may be shown once. Toxic doses and inconclusive results are not listed. Rule as the data show it: active = T/C of 150% or more; inactive = T/C below 125%.

Tested on: L1210 leukemia ip in BDF1 mice, survival T/C
Assay: NCI In Vivo Anticancer Drug Screen. Data for tumor model L1210 Leukemia (intraperitoneal) in B6D2F1 (BDF1) mice
Conditions: endpoint: mean survival time, higher = longer survival
Summary of the method: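 Read-out is survival time, reported as the treated-group measurement over the vehicle-control measurement.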

[1] = dose: 100.0 mg/kg/injection, schedule: Q01DX009 (ip), vehicle: saline with Tween-80
[2] = dose: 200.0 mg/kg/injection, schedule: Q01DX009 (ip), vehicle: saline with Tween-80
[3] = dose: 100.0 mg/kg/injection, schedule: Q04DX003 (ip), vehicle: saline
[4] = dose: 100.0 mg/kg/injection, schedule: Q01DX009 (ip), vehicle: Klucel (hydroxypropylcellulose) (HPC)
[5] = dose: 200.0 mg/kg/injection, schedule: Q01DX009 (ip), vehicle: Klucel (hydroxypropylcellulose) (HPC)
[6] = dose: 400.0 mg/kg/injection, schedule: Q01DX009 (ip), vehicle: Klucel (hydroxypropylcellulose) (HPC)
[7] = dose: 100.0 mg/kg/injection, schedule: Q01DX001 (ip), vehicle: saline
[8] = dose: 200.0 mg/kg/injection, schedule: Q01DX001 (ip), vehicle: saline
[9] = dose: 400.0 mg/kg/injection, schedule: Q01DX001 (ip), vehicle: saline
[10] = dose: 100.0 mg/kg/injection, schedule: Q04DX002 (ip), vehicle: Klucel (hydroxypropylcellulose) (HPC)
[11] = dose: 200.0 mg/kg/injection, schedule: Q04DX002 (ip), vehicle: Klucel (hydroxypropylcellulose) (HPC)
[12] = dose: 400.0 mg/kg/injection, schedule: Q04DX002 (ip), vehicle: Klucel (hydroxypropylcellulose) (HPC)

Measured: T/C

Oc1cc(O)c2c(c1)OC(c1ccc(O)c(O)c1)C(OC1(c3cc(O)c(O)c(O)c3)Oc3cc(O)cc(O)c3C(O)C1O)C2 (stereo not given)
inactive: [1] 95 % of control | [2] 97 % of control

CCSC1C(O)C(C(O)CO)OC1n1cnc2c(N)ncnc21 (stereo not given)
inactive: dose: 100.0 mg/kg/injection, schedule: Q01DX005 (ip), vehicle: saline 98 % of control and 105 % of control and 102 % of control | dose: 200.0 mg/kg/injection, schedule: Q01DX005 (ip), vehicle: saline 98 % of control and 100 % of control and 96 % of control | dose: 400.0 mg/kg/injection, schedule: Q01DX005 (ip), vehicle: saline 104 % of control

O/N=C\C[n+]1cc2ccccc2cc1/C=N\O
inactive: dose: 25.0 mg/kg/injection, schedule: Q01DX009 (ip), vehicle: saline 97 % of control | dose: 50.0 mg/kg/injection, schedule: Q01DX009 (ip), vehicle: saline 97 % of control | dose: 100.0 mg/kg/injection, schedule: Q01DX009 (ip), vehicle: saline 104 % of control | [3] 98 % of control

CC(/C=N/N=C(N)N)=N\NC(N)=S
inactive: dose: 15.0 mg/kg/injection, schedule: Q01DX Z (ip), vehicle: carboxymethylcellulose (CMC) 98 % of control | dose: 30.0 mg/kg/injection, schedule: Q01DX Z (ip), vehicle: carboxymethylcellulose (CMC) 101 % of control | dose: 30.0 mg/kg/injection, schedule: Q01DX Z (oral), vehicle: carboxymethylcellulose (CMC) 103 % of control | dose: 60.0 mg/kg/injection, schedule: Q01DX Z (ip), vehicle: carboxymethylcellulose (CMC) 111 % of control | dose: 60.0 mg/kg/injection, schedule: Q01DX Z (oral), vehicle: carboxymethylcellulose (CMC) 103 % of control | dose: 120.0 mg/kg/injection, schedule: Q01DX Z (ip), vehicle: carboxymethylcellulose (CMC) 114 % of control | dose: 120.0 mg/kg/injection, schedule: Q01DX Z (oral), vehicle: carboxymethylcellulose (CMC) 106 % of control | dose: 240.0 mg/kg/injection, schedule: Q01DX Z (oral), vehicle: carboxymethylcellulose (CMC) 105 % of control

N#CCC(C#N)C1C=CCC1 (stereo not given)
inactive: dose: 5.0 mg/kg/injection, schedule: Q01DX001 (ip), vehicle: saline 97 % of control | dose: 10.0 mg/kg/injection, schedule: Q01DX001 (ip), vehicle: saline 97 % of control | dose: 12.5 mg/kg/injection, schedule: Q04DX003 (ip), vehicle: saline with Tween-80 98 % of control

N#CSc1ccc(Nc2ccc(SC#N)cc2)cc1
inactive: dose: 12.5 mg/kg/injection, schedule: Q01DX009 (ip), vehicle: Klucel (hydroxypropylcellulose) (HPC) 95 % of control | dose: 25.0 mg/kg/injection, schedule: Q01DX009 (ip), vehicle: Klucel (hydroxypropylcellulose) (HPC) 98 % of control

Cc1ccc(-c2nc(-c3nccc4ccccc34)oc2-c2ccccc2)cc1
inactive: [4] 103 % of control | [5] 95 % of control | [6] 95 % of control

CC(=O)c1cccc(NC(=O)Nc2cccc(C(C)=O)c2)c1
inactive: dose: 2.5 mg/kg/injection, schedule: Q01DX009 (ip), vehicle: saline 101 % of control | dose: 5.0 mg/kg/injection, schedule: Q01DX009 (ip), vehicle: saline 95 % of control | dose: 10.0 mg/kg/injection, schedule: Q01DX009 (ip), vehicle: saline 98 % of control | dose: 20.0 mg/kg/injection, schedule: Q01DX009 (ip), vehicle: saline 93 % of control and 101 % of control | dose: 40.0 mg/kg/injection, schedule: Q01DX009 (ip), vehicle: saline 90 % of control | dose: 80.0 mg/kg/injection, schedule: Q01DX009 (ip), vehicle: saline 93 % of control | dose: 160.0 mg/kg/injection, schedule: Q01DX009 (ip), vehicle: saline 90 % of control | dose: 320.0 mg/kg/injection, schedule: Q01DX009 (ip), vehicle: saline 95 % of control

CCCCNC(=O)NC(=O)CS(=O)(=O)c1ccc(C)cc1
inactive: dose: 100.0 mg/kg/injection, schedule: Q04DX003 (ip), vehicle: saline with Tween-80 95 % of control | dose: 200.0 mg/kg/injection, schedule: Q04DX003 (ip), vehicle: saline with Tween-80 95 % of control | dose: 400.0 mg/kg/injection, schedule: Q04DX003 (ip), vehicle: saline with Tween-80 93 % of control

CN1c2ccccc2C(C)(C)C12C=Cc1ccccc1O2 (stereo not given)
inactive: dose: 25.0 mg/kg/injection, schedule: Q04DX002 (ip), vehicle: gum acacia 111 % of control | dose: 50.0 mg/kg/injection, schedule: Q04DX002 (ip), vehicle: gum acacia 103 % of control | dose: 100.0 mg/kg/injection, schedule: Q04DX002 (ip), vehicle: gum acacia 88 % of control | dose: 200.0 mg/kg/injection, schedule: Q04DX002 (ip), vehicle: gum acacia 94 % of control

CCOC(=O)CCc1cc(C)[nH]c1C(=O)OCC
inactive: dose: 100.0 mg/kg/injection, schedule: Q01DX001 (ip), vehicle: Klucel (hydroxypropylcellulose) (HPC) 93 % of control | dose: 100.0 mg/kg/injection, schedule: Q04DX003 (ip), vehicle: Klucel (hydroxypropylcellulose) (HPC) 101 % of control | dose: 200.0 mg/kg/injection, schedule: Q01DX001 (ip), vehicle: Klucel (hydroxypropylcellulose) (HPC) 93 % of control | dose: 200.0 mg/kg/injection, schedule: Q04DX003 (ip), vehicle: Klucel (hydroxypropylcellulose) (HPC) 96 % of control | dose: 400.0 mg/kg/injection, schedule: Q01DX001 (ip), vehicle: Klucel (hydroxypropylcellulose) (HPC) 101 % of control | dose: 400.0 mg/kg/injection, schedule: Q04DX003 (ip), vehicle: Klucel (hydroxypropylcellulose) (HPC) 98 % of control

O=C(c1ccccc1)c1ccc2ccc(F)cc2c1C(=O)O
inactive: [1] 113 % of control | dose: 100.0 mg/kg/injection, schedule: Q04DX003 (ip), vehicle: other 95 % of control | [2] 113 % of control | dose: 200.0 mg/kg/injection, schedule: Q04DX003 (ip), vehicle: other 103 % of control | dose: 400.0 mg/kg/injection, schedule: Q01DX009 (ip), vehicle: saline with Tween-80 107 % of control | dose: 400.0 mg/kg/injection, schedule: Q04DX003 (ip), vehicle: other 101 % of control

NC(=O)C1CCCN1Cc1ccc2c(c1)OCO2 (stereo not given)
inactive: [7] 97 % of control | [8] 94 % of control | [9] 94 % of control

O=C(O)c1cc(-c2ccccc2Cl)nc2ccccc12
inactive: [7] 96 % of control | [8] 94 % of control | [9] 97 % of control

C=CCOC(=O)C1(O)c2ccccc2NC(=S)N1CC=C (stereo not given)
inactive: [4] 104 % of control | [10] 97 % of control | [5] 93 % of control | [11] 97 % of control | [6] 93 % of control | [12] 100 % of control

CCC[As](=O)(O)C(C)C
inactive: [3] 97 % of control

Cc1ccc(S(=O)(=O)OC2C(=O)C(C)(C)CCC2(C)C)cc1 (stereo not given)
inactive: [10] 100 % of control | [11] 100 % of control | [12] 97 % of control

CCOC(=O)c1ccc(NC(=O)/C=C/c2ccccc2)cc1
inactive: [4] 97 % of control | [5] 95 % of control | [6] 97 % of control

CC(C)(CCC(=O)O)CCC(=O)O
inactive: dose: 50.0 mg/kg/injection, schedule: Q01DX001 (ip), vehicle: carboxymethylcellulose (CMC) 100 % of control | dose: 100.0 mg/kg/injection, schedule: Q01DX001 (ip), vehicle: carboxymethylcellulose (CMC) 111 % of control | dose: 200.0 mg/kg/injection, schedule: Q01DX001 (ip), vehicle: carboxymethylcellulose (CMC) 100 % of control | dose: 400.0 mg/kg/injection, schedule: Q01DX001 (ip), vehicle: carboxymethylcellulose (CMC) 94 % of control
